Laboratory results from patent US11478526B2, “Methods of reducing neuroinflammation or toxicity induced by amyloid beta (abeta) using glucocorticoid induced leucine zipper (GILZ) analog peptides” (INDIANA UNIVERSITY RESEARCH AND TECHNOLOGY CORPORATION, priority 2016, dated 2022).

Columns and labels:
Aβ1-42 exposed HFB cells = experiment: Cytokines in culture medium of Aβ1-42 exposed HFB; type: cell-based, human; details: PGA at IC50 concentration
U373 cells = experiment: Annexin-V and propidium iodide apoptosis by flow cytometry; type: cell-based, human; details: score 1/0
Method: Detection apoptosis by flow cytometry: To further assess cell cytotoxicity, the apoptotic effects of individual GA or control peptide was evaluated by the Annexin-V and propidium iodide (PI) dual staining method (Annexin-V-Fluos staining kit, Roche Diagnostics, Mannheim, Germany). As opposed to apoptotic cells, necrotic cells with ruptured cell membrane take up PI, the DNA binding dye. Thus, cells which take up both fluorochromes are a mixture of apoptotic and necrotic cells, whereas cells that exclude PI but bind Annexin V are (early) apoptotic cells. U373 cells cultured with varying concentrations of individual GA or control peptide (0.5 μM to 50 μM) for 24 hours were centrifuged and suspended in 100 μl of Annexin V/PI labelling solution (20 μl each of Annexin-V-Fluos labelling reagent and PI in 1 ml of binding buffer) for 15 min at room temperature. After washing the cells were resuspended in PBS:1% paraformaldehyde and analyzed using a FACScan flow cytometer (BD Biosciences, San Jose, Calif.).

[1] = LD50 predicted from in-vitro IC50 by regression (Speilmann method); details: for LD50 estimated from IC50: Log (LD50)=0.506×(log IC50)+0.475, body weight; for LD50 (mM): score 1/0
Method: Lactate dehydrogenase (LDH) assay: To detect direct GA-induced cell lysis we performed LDH release assays (Roche Molecular Diagnostics). […] Approximately 5×10^4 U373 cells/well were cultured in 96-well plates in the presence of increasing concentrations of individual GA or control peptide from 0.5 μM to 500 μM. Cells treated with 2% triton-X 100 (Sigma Aldrich, St. Louis, Mo.) for 10 minutes served as positive control. Untreated cells served as controls for spontaneous LDH-release. Specific LDH-release was calculated according to the following formula: LDH-release %=100*(GA or control peptide treated cells—untreated cells)/(positive control-untreated cells). The IC50 values were extrapolated by logarithmic estimation. The LD50 in mg/kg was predicted using the formula, Log (LD50)=0.506×(log IC50)+0.475. […]

[2] = system: Phospho-NF-κB p65 (Ser536); experiment: LPS induced neuroinflammation: Phospho-NF-κB p65 ELISA of brain homogenates; type: in vivo, mouse; details: 25 mg/kg i.v. alternate days, day 7
Method: Animals and lipopolysaccharide induced neuroinflammation: Male C57/6J mice weighing 32 to 37 grams were housed five per cage at a temperature of 22±2° C. with 12 hour light/12 hour dark cycles with free access to laboratory food and water. Lipopolysaccharides (LPS) from Escherichia coli 026:B6, =10,000 EU/mg, purified by phenol extraction was purchased from Sigma (Sigma Aldrich, Mo., USA). The mice were randomly divided into seven groups: LPS, LPS+GA-1 or GA-2 or CP-1 or CP-2 or CP-3 or TAT. The LPS was administered intraperitoneally at […] in 100 μl of sterile saline followed by corn oil in the morning daily for six days. The GA or CP was administered intravenously at 25 mg/kg in 100 μl of sterile saline on alternate days. Additional control group included mice receiving saline alone. […]
NF-κB assay: Brain homogenates processed as above were assessed by the Cell Signaling Technology PathScan® Phospho-NF-κB p65 (Ser^536) Sandwich ELISA kit following manufacturer's protocol (Cell Signaling Technology, Boston, Mass.). […] After extensive washing, the captured phospho-NF-κB p65 protein was detected by incubating with horse radish peroxidase (HRP) conjugated NF-κB p65 rabbit mAb followed by washing and color development using the TMB substrate. Absorbance at 450 nm was measured using a microplate reader (Model 680; Bio-Rad Laboratories, Hercules, Calif., USA). […]

[3] = system: LPS induced neuroinflammation; experiment: LPS induced neuroinflammation: immunohistochemistry of hippocampal gliosis; type: in vivo, mouse; details: 25 mg/kg intravenously on alternate days; for CD11b+p65+ glial cells in the hippocampus: day 7; for GFAP+ astroglial cells in the hippocampus / Iba1+ microglial cells in the hippocampus: day 7, vs control peptide or untreated
Method: Animals and lipopolysaccharide induced neuroinflammation: Male C57/6J mice weighing 32 to 37 grams were housed five per cage at a temperature of 22±2° C. with 12 hour light/12 hour dark cycles with free access to laboratory food and water. Lipopolysaccharides (LPS) from Escherichia coli 026:B6, =10,000 EU/mg, purified by phenol extraction was purchased from Sigma (Sigma Aldrich, Mo., USA). The mice were randomly divided into seven groups: LPS, LPS+GA-1 or GA-2 or CP-1 or CP-2 or CP-3 or TAT. The LPS was administered intraperitoneally at […] in 100 μl of sterile saline followed by corn oil in the morning daily for six days. The GA or CP was administered intravenously at 25 mg/kg in 100 μl of sterile saline on alternate days. Additional control group included mice receiving saline alone. All animals were sacrificed on day 7.
Histology and immunohistochemistry: The mice were sacrificed on day 7 by intra-cardial perfusion of 25 ml of 0.9% saline. Brain from each mouse was removed, one half was immediately frozen and the other half fixed in 4% paraformaldehyde for 24 h and later in 10% neutral buffered formalin for additional 24 h. Fixed tissues were subsequently processed for paraffin embedding. Tissue sections (5μ) stained with Harris's haematoxylin and counterstained with eosin were assessed for inflammation.
Immunohistochemistry: Serial 5μ thick coronal sections of each brain specimen were immunostained for markers of microglial cells, astrocytes and NF-κB p65. Briefly, after deparaffinization and hydration sections were subjected to antigen retrieval by microwave incubation in 10 mM sodium citrate buffer (pH 6.0) followed by sequential incubation in 30% hydrogen peroxide and blocking buffer (Enzo biosciences,) to reduce non-specific binding. The sections were then stained with the following primary monoclonal antibodies from EMD Millipore Corporation, Temecula, Calif., USA: anti-Iba-1 (AIF1 clone: Cat. #MABN92) or anti-glial fibrillary acidic protein (GFAP) clone GA5 (Cat. #MAB3402, Millipore) or anti-CD11b (Cat. #MABF513) clone M1/70 or anti-NF-κB p65 subunit clone 12H11 (Cat. #MAB3026). For mono-staining of Iba-1 and GFAP, detection was with the use of IHC select immunoperoxidase secondary detection system (Millipore). The peroxidase conjugated streptavidin-biotin method was used and brown staining was considered positive. For dual staining of CD11b and NF-κB p65 detection was achieved using the […]® (mouse-HRP/rabbit-AP) IHC kit (Catalog #: ADI-950-100, ENZO Lifesciences, Farmingdale, N.Y., USA). For each marker, to confirm the specificity of the antibodies, a separate set of sections from each group were incubated with only the secondary antibodies, a condition in which no staining was present.
Quantitative analysis of staining intensity: Images of the IHC stained sections were captured using the NIKON Multiphoton microscope with attached DS Ri2 camera. Five areas encompassing the hippocampus of each brain section were analyzed using the ImageJ Software. The number and the relative optical density of Iba1+ and GFAP+ glial cells was determined using the multi-point tool and the IHC-tool box. A training for brown/red color was performed prior to measurement to define the threshold for positive selection. Regions of interest encompassing the hippocampus were identified in each section, and the corresponding images were quantified using integrated optical density, normalized to the background optical density. Measurement of pixel intensity was restricted to the DAB or AP stained pixels of cells within defined circularity. Five consecutive coronal sections were assessed for each mouse.

Substance: Ac-EPAPLAPYG-NH2 [PGA-2]
- AIL-1p concentration in culture supernatant (not shown) (Aβ1-42 exposed HFB cells): significantly lower
- AIL-6 concentration in culture supernatant (Aβ1-42 exposed HFB cells): significantly lower
- % apoptosis at LD50 (U373 cells): 1 (<25)
- LD50 estimated from IC50 [1]: 1396.83 mg/kg
- LD50 (mM) [1]: 1 (>100)

Substance: Ac-EPAPESPQV-NH2 [GA-2]
- absorbance suggestive of activated p65 in brain protein extract [2]: 0.12+/−0.07
- LD50 estimated from IC50 [1]: 369.42 mg/kg
- CD11b+p65+ glial cells in the hippocampus [3]: significantly reduced in number and intensity
- GFAP+ astroglial cells in the hippocampus [3]: reduced
- Iba1+ microglial cells in the hippocampus [3]: reduced

Substance: Ac-EPAPESPQV-NH2 [PGA-4]
- AIL-1p concentration in culture supernatant (not shown) (Aβ1-42 exposed HFB cells): significantly lower
- AIL-6 concentration in culture supernatant (Aβ1-42 exposed HFB cells): significantly lower
- % apoptosis at LD50 (U373 cells): 1 (<25)
- LD50 estimated from IC50 [1]: 1693.87 mg/kg
- LD50 (mM) [1]: 1 (>100)

Substance: Ac-EPAPLAPYG-NH2 [GA-1]
- absorbance suggestive of activated p65 in brain protein extract [2]: 0.098+/−0.03
- LD50 estimated from IC50 [1]: 380.44 mg/kg
- CD11b+p65+ glial cells in the hippocampus [3]: significantly reduced in number and intensity
- GFAP+ astroglial cells in the hippocampus [3]: reduced
- Iba1+ microglial cells in the hippocampus [3]: reduced
